Data reported in the kinase profiling compilation of Christmann-Franck et al. (2016).

Assays:
Assay in all cases: KINOMEscan competition binding
Conditions in all cases: compound 10.0 µM
STK35 (human) = STK35 (human) (UniProt Q8TDR2)
MARK4 (human) = MARK4 (human) (UniProt Q96L34)
ACVR1B (human) = ACVR1B (human) (UniProt P36896)
EPHB3 (human) = EPHB3 (human) (UniProt P54753)
[1] = test system: ABL1 (human), P00519 [Y253F]
NLK (human) = NLK (human) (UniProt Q9UBE8)
[2] = test system: RET (human), P07949 [M918T]
RET (human), P07949 [M918T], sequence (P07949 whole entry M918T, looked up): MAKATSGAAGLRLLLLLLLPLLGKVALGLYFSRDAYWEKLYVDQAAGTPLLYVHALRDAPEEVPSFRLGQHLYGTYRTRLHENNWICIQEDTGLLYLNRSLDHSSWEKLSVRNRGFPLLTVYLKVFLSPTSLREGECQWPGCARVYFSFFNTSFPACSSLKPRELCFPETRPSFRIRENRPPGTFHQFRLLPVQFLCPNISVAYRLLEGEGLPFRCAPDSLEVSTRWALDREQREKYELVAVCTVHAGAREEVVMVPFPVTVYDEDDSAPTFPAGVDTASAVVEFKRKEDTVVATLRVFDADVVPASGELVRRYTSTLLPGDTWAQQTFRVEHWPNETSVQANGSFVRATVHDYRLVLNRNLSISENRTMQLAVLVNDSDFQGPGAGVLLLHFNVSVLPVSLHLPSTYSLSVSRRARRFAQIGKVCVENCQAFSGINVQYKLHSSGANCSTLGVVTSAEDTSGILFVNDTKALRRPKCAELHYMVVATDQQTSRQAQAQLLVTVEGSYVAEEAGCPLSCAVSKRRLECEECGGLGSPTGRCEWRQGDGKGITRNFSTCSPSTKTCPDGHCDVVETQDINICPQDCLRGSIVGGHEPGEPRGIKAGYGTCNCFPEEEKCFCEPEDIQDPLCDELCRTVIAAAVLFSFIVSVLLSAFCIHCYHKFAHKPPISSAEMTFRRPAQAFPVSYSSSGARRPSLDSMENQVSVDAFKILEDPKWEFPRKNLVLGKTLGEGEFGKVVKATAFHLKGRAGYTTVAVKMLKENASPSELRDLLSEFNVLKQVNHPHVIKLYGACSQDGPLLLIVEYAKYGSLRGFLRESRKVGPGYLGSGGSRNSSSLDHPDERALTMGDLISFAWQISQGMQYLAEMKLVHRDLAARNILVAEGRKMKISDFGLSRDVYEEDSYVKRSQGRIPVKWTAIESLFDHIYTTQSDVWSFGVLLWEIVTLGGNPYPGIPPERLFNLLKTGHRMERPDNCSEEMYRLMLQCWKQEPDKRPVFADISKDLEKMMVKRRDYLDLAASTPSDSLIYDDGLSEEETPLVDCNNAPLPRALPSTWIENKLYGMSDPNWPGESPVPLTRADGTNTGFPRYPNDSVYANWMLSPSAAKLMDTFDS

DMPK (human) = DMPK (human) (UniProt Q09013)
FGFR3 (human) = FGFR3 (human) (UniProt P22607)
FGFR3 (human), sequence (P22607 whole entry, looked up): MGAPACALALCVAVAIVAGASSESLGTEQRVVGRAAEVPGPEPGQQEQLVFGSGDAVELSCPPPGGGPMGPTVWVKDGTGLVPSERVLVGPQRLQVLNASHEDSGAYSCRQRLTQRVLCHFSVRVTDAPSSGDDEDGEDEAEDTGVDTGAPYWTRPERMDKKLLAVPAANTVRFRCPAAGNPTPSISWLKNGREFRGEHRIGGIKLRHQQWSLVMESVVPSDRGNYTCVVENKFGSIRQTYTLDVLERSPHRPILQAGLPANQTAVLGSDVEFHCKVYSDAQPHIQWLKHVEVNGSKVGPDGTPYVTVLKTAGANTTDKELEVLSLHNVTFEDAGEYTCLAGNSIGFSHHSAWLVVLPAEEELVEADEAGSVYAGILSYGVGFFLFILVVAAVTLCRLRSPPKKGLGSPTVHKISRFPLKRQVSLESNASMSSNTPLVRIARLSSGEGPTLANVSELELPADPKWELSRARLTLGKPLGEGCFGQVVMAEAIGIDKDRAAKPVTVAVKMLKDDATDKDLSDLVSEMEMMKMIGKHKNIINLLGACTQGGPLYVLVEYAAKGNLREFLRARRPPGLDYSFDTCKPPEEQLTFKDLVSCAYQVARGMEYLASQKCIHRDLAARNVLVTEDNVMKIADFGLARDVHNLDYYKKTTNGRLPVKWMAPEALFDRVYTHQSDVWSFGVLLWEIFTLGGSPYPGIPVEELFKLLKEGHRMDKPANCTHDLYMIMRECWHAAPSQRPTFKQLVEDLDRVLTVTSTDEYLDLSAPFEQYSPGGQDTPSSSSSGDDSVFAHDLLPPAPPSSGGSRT

EPHA3 (human) = EPHA3 (human) (UniProt P29320)
CDC42BPG (human) = CDC42BPG (human) (UniProt Q6DT37)
MYLK (human) = MYLK (human) (UniProt Q15746)
TAOK1 (human) = TAOK1 (human) (UniProt Q7L7X3)
SLK (human) = SLK (human) (UniProt Q9H2G2)
SYK (human) = SYK (human) (UniProt P43405)
MAPK7 (human) = MAPK7 (human) (UniProt Q13164)
STK25 (human) = STK25 (human) (UniProt O00506)
RIOK1 (human) = RIOK1 (human) (UniProt Q9BRS2)
EPHA4 (human) = EPHA4 (human) (UniProt P54764)
CDC2L2 (human) = CDC2L2 (human) (UniProt Q9UQ88)
CHEK1 (human) = CHEK1 (human) (UniProt O14757)
AKT1 (human) = AKT1 (human) (UniProt P31749)
CDK15 (human) = CDK15 (human) (UniProt Q96Q40)
CDK15 (human), sequence (Q96Q40 whole entry, looked up): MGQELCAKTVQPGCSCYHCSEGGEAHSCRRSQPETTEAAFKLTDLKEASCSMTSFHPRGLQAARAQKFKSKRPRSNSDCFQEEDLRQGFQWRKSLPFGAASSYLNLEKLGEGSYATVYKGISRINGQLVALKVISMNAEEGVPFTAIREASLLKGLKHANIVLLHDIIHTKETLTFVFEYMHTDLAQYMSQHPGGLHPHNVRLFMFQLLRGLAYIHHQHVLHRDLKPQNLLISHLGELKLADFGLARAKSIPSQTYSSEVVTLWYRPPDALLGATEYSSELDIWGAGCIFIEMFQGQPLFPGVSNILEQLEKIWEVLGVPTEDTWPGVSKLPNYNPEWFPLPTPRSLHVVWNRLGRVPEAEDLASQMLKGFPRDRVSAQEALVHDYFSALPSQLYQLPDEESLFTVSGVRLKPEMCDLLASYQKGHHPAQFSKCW

FLT1 (human) = FLT1 (human) (UniProt P17948)
MAPKAPK2 (human) = MAPKAPK2 (human) (UniProt P49137)
CSNK1A1L (human) = CSNK1A1L (human) (UniProt Q8N752)
IKBKB (human) = IKBKB (human) (UniProt O14920)
RPS6KA1 KD2 (human) = RPS6KA1 KD2 (human) (UniProt Q15418)
RPS6KA1 KD2 (human), sequence (Q15418 whole entry, looked up): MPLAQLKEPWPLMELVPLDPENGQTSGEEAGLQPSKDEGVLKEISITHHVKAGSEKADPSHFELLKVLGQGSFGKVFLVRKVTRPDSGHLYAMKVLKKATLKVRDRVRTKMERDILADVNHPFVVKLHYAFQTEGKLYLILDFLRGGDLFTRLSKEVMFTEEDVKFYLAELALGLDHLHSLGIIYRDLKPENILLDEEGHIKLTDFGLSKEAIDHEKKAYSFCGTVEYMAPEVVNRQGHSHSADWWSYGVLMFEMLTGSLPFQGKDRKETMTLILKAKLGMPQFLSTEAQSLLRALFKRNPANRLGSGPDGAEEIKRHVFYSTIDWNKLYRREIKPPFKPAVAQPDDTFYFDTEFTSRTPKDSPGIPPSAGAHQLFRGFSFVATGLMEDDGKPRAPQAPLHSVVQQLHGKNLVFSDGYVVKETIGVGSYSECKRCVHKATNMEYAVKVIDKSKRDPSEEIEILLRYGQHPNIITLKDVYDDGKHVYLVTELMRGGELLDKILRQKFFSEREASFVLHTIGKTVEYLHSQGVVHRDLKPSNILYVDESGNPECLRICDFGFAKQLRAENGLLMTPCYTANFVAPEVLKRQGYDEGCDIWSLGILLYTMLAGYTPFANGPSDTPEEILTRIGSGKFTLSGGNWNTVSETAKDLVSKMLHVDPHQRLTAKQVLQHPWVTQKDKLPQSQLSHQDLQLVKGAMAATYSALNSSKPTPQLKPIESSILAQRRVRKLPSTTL

CLK2 (human) = CLK2 (human) (UniProt P49760)
CLK2 (human), sequence (P49760 whole entry, looked up): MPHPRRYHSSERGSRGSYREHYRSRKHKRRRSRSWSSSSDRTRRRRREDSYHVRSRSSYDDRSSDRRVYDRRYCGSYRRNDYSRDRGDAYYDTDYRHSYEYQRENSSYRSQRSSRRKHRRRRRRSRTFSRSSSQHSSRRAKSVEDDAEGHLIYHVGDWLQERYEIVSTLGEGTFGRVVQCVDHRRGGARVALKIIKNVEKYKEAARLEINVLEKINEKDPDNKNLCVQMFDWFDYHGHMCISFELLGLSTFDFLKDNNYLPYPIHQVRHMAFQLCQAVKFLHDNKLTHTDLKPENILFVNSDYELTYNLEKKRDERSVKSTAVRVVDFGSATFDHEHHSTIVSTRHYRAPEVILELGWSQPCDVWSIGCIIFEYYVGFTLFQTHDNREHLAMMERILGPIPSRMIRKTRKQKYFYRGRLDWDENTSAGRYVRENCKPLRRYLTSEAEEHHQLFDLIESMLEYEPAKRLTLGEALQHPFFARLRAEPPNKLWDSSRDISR

PIK3CD (human) = PIK3CD (human) (UniProt O00329)
NTRK3 (human) = NTRK3 (human) (UniProt Q16288)
MAP4K5 (human) = MAP4K5 (human) (UniProt Q9Y4K4)

MARK4 (human), sequence (Q96L34 whole entry, looked up): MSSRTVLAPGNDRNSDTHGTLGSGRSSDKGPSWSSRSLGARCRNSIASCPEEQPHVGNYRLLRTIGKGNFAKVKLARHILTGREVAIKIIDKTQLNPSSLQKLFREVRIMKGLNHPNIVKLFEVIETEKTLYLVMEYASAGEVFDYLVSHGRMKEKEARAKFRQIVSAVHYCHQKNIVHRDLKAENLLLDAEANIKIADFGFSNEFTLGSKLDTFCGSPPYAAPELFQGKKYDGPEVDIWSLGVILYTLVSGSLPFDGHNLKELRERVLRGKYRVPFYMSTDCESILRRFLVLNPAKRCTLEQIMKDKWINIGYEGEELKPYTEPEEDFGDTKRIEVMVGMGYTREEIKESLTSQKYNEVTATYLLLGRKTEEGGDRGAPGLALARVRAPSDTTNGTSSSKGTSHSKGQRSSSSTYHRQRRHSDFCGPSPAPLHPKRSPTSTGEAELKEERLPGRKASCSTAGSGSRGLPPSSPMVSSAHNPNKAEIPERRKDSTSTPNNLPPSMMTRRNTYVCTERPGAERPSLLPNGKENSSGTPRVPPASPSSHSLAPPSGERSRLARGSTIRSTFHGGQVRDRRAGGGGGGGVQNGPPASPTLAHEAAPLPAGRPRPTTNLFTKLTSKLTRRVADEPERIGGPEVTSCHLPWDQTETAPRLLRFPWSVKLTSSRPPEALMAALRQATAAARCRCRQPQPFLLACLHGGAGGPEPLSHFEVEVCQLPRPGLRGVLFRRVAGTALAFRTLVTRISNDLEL
ACVR1B (human), sequence (P36896 whole entry, looked up): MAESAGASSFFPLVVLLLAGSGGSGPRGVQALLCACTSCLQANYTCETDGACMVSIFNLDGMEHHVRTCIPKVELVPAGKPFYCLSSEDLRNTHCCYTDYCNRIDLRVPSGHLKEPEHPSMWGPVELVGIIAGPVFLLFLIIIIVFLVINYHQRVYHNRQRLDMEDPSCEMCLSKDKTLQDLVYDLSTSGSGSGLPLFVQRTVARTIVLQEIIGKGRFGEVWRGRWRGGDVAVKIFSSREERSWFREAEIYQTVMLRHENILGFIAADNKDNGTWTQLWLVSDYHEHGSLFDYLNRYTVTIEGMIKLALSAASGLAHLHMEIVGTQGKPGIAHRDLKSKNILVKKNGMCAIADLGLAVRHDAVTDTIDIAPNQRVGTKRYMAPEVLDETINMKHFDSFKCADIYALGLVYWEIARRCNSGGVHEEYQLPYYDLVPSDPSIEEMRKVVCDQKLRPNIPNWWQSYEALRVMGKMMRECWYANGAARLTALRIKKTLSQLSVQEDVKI

SMILES	kinase still bound, per cent of control (MARK4 (human)) [%]	kinase still bound, per cent of control (ACVR1B (human)) [%]	kinase still bound, per cent of control (EPHB3 (human)) [%]	kinase still bound, per cent of control [1] [%]	kinase still bound, per cent of control (NLK (human)) [%]	kinase still bound, per cent of control [2] [%]	kinase still bound, per cent of control (DMPK (human)) [%]	kinase still bound, per cent of control (FGFR3 (human)) [%]	kinase still bound, per cent of control (EPHA3 (human)) [%]	kinase still bound, per cent of control (CDC42BPG (human)) [%]	kinase still bound, per cent of control (MYLK (human)) [%]	kinase still bound, per cent of control (SLK (human)) [%]	kinase still bound, per cent of control (SYK (human)) [%]	kinase still bound, per cent of control (MAPK7 (human)) [%]	kinase still bound, per cent of control (STK25 (human)) [%]	kinase still bound, per cent of control (RIOK1 (human)) [%]	kinase still bound, per cent of control (EPHA4 (human)) [%]	kinase still bound, per cent of control (CDC2L2 (human)) [%]	kinase still bound, per cent of control (CHEK1 (human)) [%]	kinase still bound, per cent of control (AKT1 (human)) [%]	also measured
Cc1n[nH]c2ccc(-c3cncc(OC[C@@H](N)Cc4c[nH]c5ccccc45)c3)cc12	100	100	100	100	100	100	0.8	100	100	0.8	0.1	100	100	100	100	2.8	100	100	100	1.8	kinase still bound, per cent of control (STK35 (human)): 100%; kinase still bound, per cent of control (TAOK1 (human)): 0.05%; kinase still bound, per cent of control (CDK15 (human)): 16%; kinase still bound, per cent of control (FLT1 (human)): 100%; kinase still bound, per cent of control (MAPKAPK2 (human)): 100%; kinase still bound, per cent of control (CSNK1A1L (human)): 11%; kinase still bound, per cent of control (IKBKB (human)): 34%; kinase still bound, per cent of control (RPS6KA1 KD2 (human)): 100%; kinase still bound, per cent of control (CLK2 (human)): 0.05%; kinase still bound, per cent of control (PIK3CD (human)): 100%; kinase still bound, per cent of control (NTRK3 (human)): 100%
CNC(=O)c1ccc(Nc2cc(Nc3ccccc3S(=O)(=O)C(C)C)c3cc[nH]c3n2)nc1	4	100	100	12	100	1.4	10	18	100	100	100	0	2.6	100	100	2	100	100	100	100	kinase still bound, per cent of control (STK35 (human)): 12%; kinase still bound, per cent of control (TAOK1 (human)): 0.65%; kinase still bound, per cent of control (MAP4K5 (human)): 1.8%; kinase still bound, per cent of control (CDK15 (human)): 18%; kinase still bound, per cent of control (FLT1 (human)): 100%; kinase still bound, per cent of control (MAPKAPK2 (human)): 100%; kinase still bound, per cent of control (CSNK1A1L (human)): 26%; kinase still bound, per cent of control (IKBKB (human)): 100%; kinase still bound, per cent of control (RPS6KA1 KD2 (human)): 100%; kinase still bound, per cent of control (CLK2 (human)): 4.7%; kinase still bound, per cent of control (PIK3CD (human)): 100%; kinase still bound, per cent of control (NTRK3 (human)): 0.4%
C=CC(=O)Nc1ccc(CN(C(=O)Nc2c(Cl)c(OC)cc(OC)c2Cl)c2cc(Nc3ccc(N4CCN(C)CC4)cc3)ncn2)cc1	100	100	100	13	100	0.4	100	4.5	100	100	100	9.8	100	9.7	100	100	100	100	100	100	kinase still bound, per cent of control (STK35 (human)): 100%; kinase still bound, per cent of control (TAOK1 (human)): 0.8%; kinase still bound, per cent of control (MAP4K5 (human)): 2.3%; kinase still bound, per cent of control (CDK15 (human)): 100%; kinase still bound, per cent of control (FLT1 (human)): 0.3%; kinase still bound, per cent of control (MAPKAPK2 (human)): 100%; kinase still bound, per cent of control (CSNK1A1L (human)): 100%; kinase still bound, per cent of control (IKBKB (human)): 100%; kinase still bound, per cent of control (RPS6KA1 KD2 (human)): 100%; kinase still bound, per cent of control (CLK2 (human)): 100%; kinase still bound, per cent of control (PIK3CD (human)): 100%; kinase still bound, per cent of control (NTRK3 (human)): 100%
CCN(CC)CCCCNc1ncc2cc(-c3cc(OC)cc(OC)c3)c(NC(=O)NC(C)(C)C)nc2n1	100	100	100	100	100	100	100	0.05	100	100	100	100	100	36	9.4	100	100	100	100	100	kinase still bound, per cent of control (MAP4K5 (human)): 100%; kinase still bound, per cent of control (FLT1 (human)): 8%; kinase still bound, per cent of control (MAPKAPK2 (human)): 100%; kinase still bound, per cent of control (CSNK1A1L (human)): 100%; kinase still bound, per cent of control (RPS6KA1 KD2 (human)): 100%; kinase still bound, per cent of control (CLK2 (human)): 100%; kinase still bound, per cent of control (NTRK3 (human)): 100%
